Measurements: patent US20030139331A1, “Treatment of cancer by reduction of intracellular energy and pyrimidines” (priority 2000, published 2003)
“Also recorded” adds a separate entry of the source.

Key:
[1] = test system: MDA-MB 468 human breast cancer xenografts; experiment: Taxotere with MAP or MAPAL in MDA-MB-468 human breast cancer xenografts; assay type: in vivo; conditions: pyruvate for 1 day on the 5th day after each ATP-depleting treatment
[2] = test system: 1st passage tumor transplants of CD8F1 spontaneous breast tumors; experiment: Effect of MMPR + 6-AN + PALA on tumor ATP pools in CD8F1 mice; assay type: in vivo; parameters: tumor ATP levels 48 hours after treatment, % of normal (saline-treated control tumors) / 6 HR % Saline Control / 24 HR % Saline Control / 48 HR % Saline Control / 72HR % Saline Control / 6 HW % Saline Control: concentration or dose not given beside the values; conditions: for tumor ATP level, % of normal: murine breast tumors in vivo, time not stated in the sentence
[3] = test system: first passage CD8F1 advanced spontaneous breast tumors; experiment: in vivo; conditions: for Regressions/Survivors: partial tumor regressions; for effect on tumor growth / anticancer activity (in words): advanced CD8F1 breast tumors in mice
Source text: (§1) Table 1 evaluates Saline-treated controls (Group 1), 6-AN (Group 2) and DDP (Group 3) as single agents, and in combination (Group 4), against 1st generation subcutaneous solid tumor transplants of advanced CD8F, spontaneous breast tumors. In the same experiment (i.e., same tumor transplants), is a group adding 6-AN to PALA and MMPR (MAP, Group 5), as well as a group with MAP administered prior to DDP (Group 6).
(§2) Each experiment is from a different brei (i.e., each from a different group of 3-4 spontaneous tumors) and, therefore, each transplant group contained a different number of chemotherapeutically sensitive and/or resistant tumor cells.

tumor ATP levels = conditions: cited from earlier work
[4] = test system: patients with disseminated cancer; conditions: cited from earlier work
in vivo = conditions: CD8F1, mouse, in vivo
Source text: as §1, §2

[5] = test system: murine breast cancers, colon tumors and leukemia, and human breast cancer xenografts; experiment: MAP plus anticancer agents in advanced tumor-bearing mice with a variety of tumor types; assay type: in vivo; conditions: MAP co-administered with the named anticancer agent
Method: Summary of Preclinical Therapeutic Results with MAP+Cancer Chemotherapy—MAP+each of nine mechanistically-different apoptosis-inducing anticancer agents was administered to advanced tumor-bearing mice with a variety of tumor types (murine breast cancers, colon tumors and leukemia, and human breast cancer xenografts).

mouse lymphoma cells = conditions: in vitro; cited from earlier work
[6] = test system: MDA-MB 468 human breast cancer xenografts; experiment: Taxotere with MAP or MAPAL in MDA-MB-468 human breast cancer xenografts; assay type: in vivo; conditions: for PR (partial tumor regression): CR included in PR rate; for (CR) complete tumor regression: included in PR rate; for % Partial Regressions: tumors averaged 100 mg at initiation, label subscript = mg/kg
Source text: Table 2 presents results one month after completing a q 2 week×3 schedule with Taxotere (TXT40 or TXT20; subscript=mg/kg), initiated in mice (10/grp) with subcutaneous advanced (100+mg) MDA-MB 468 breast cancer xenografts, are as follows: […]

[7] = test system: spontaneous, autochthonous CD8F1 breast tumors; experiment: Therapy of mice bearing spontaneous, autochthonous CD8F1 breast tumors; assay type: in vivo
Source text: Anticancer Effect of MAP Alone in Spontaneous Murine Breast Tumors (Ref. 39)—Table 3 records that MAP produced a partial tumor regression rate of 38% in mice bearing large spontaneous, autochthonous breast tumors. There were 24 partial tumor regressions in 64 surviving mice with acceptable toxicity (4% mortality, 3 deaths in 67 treated mice). Spontaneous regression of these spontaneous breast cancers has never been observed.

[8] = Exp.3069F, tumors averaged 80 mg at start, three i.p. courses at 10-11 day intervals, after third course
[9] = 69 days after initiating therapy, listed as TXT20
[10] = 69 days after initiating therapy, listed as Taxotere40

## CC(=O)C(=O)O [Pyruvate, pyruvate]
[1]
  effect of pyruvate administration on treatment-induced weight loss / mortality: diminishes the degree of weight loss
[1]; listed as pyruvate
  effect of pyruvate administration on treatment-induced weight loss / mortality: Unacceptable mortality (e.g., 30%) is prevented

## NC(=O)c1ccc(N)nc1 [6-AN, 6-aminonicotinamide]
[2]; 48 hours after administration
  tumor ATP levels 48 hours after treatment, % of normal (saline-treated control tumors): 69%
[2]
  tumor ATP level, % of normal: 75%
[2]; listed as 6-Aminonicotinamide
  tumor ATP level, % of normal: 69%
[2]; seventh series copy of Table 1, 6 hr
  6 HW % Saline Control: 77%
[2]; seventh series copy of Table 1, 24 hr
  24 HR % Saline Control: 75%
[2]; seventh series copy of Table 1, 48 hr
  48 HR % Saline Control: 69%
[2]; seventh series copy of Table 1, 72 hr
  72HR % Saline Control: 169%
[2]; tumor ATP 6 hr after i.p. injection, % of saline control
  6 HR % Saline Control: 77%
[2]; tumor ATP 24 hr after i.p. injection, % of saline control
  24 HR % Saline Control: 75%
[2]; tumor ATP 48 hr after i.p. injection, % of saline control
  48 HR % Saline Control: 69%
[2]; tumor ATP 72 hr after i.p. injection, % of saline control
  72HR % Saline Control: 169%
[3]; Exp.3069F, after third course
  % Weight Change: +6%
  Dead/Total: 3/10
  Regressions/Survivors: 0/7
[3]; [8]
  Av. Tumor W't (mg): 1,765 mg
[3]
  effect on tumor growth / anticancer activity (in words): tumor growth was inhibited
[3]; three pooled published experiments, MMPR, 6-AN, PALA alone and combined, P.R. = 50% or more tumor shrinkage, three courses, 1-week interval
  partial tumor regression (P.R.) rate: no partial regressions
Tumor ATP levels; 6-AN 10 mg/kg q 3 hours x 3 on days 1,3,5 or continuous infusion
  toxicity of in vivo schedules: too toxic
Tumor ATP levels; single dose of 6-AN alone at 10 mg/kg, different tumor model
  tumor ATP levels, % of normal: 75-80%
[4]; for up to 28 consecutive days of treatment
  dose of 6-AN determined to be safe in early clinical trials: 0.2 mg/kg/day
[4]; three Phase I trials, daily administration
  clinical forms of 6-AN toxicity: at low dose a mixed B complex vitamin deficiency, and at high dose CNS toxicity; also recorded: a low dose mixed B complex vitamin deficiency, and a high dose-dependent CNS toxicity

## CC(=O)O[C@H]1C(=O)[C@@]2(C)[C@H]([C@H](OC(=O)c3ccccc3)[C@]3(O)C[C@H](OC(=O)[C@H](O)[C@@H](NC(=O)c4ccccc4)c4ccccc4)C(C)=C1C3(C)C)[C@]1(OC(C)=O)CO[C@@H]1C[C@@H]2O [Taxol, paclitaxel]
In vivo
  MTD: 80 mg/kg
[3]; Table 5, MAP ± taxol
  PR/survivors (%): no tumor regressions
[3]
  effect on tumor growth / anticancer activity (in words): statistically significant inhibition of tumor growth
[5]
  enhancement of anticancer agent activity by co-administered MAP (in words): significantly enhance response rates

## N[C@@H](CN(O)N=O)C(=O)O [L-alanosine]
Mouse lymphoma cells
  cell growth, % of control: 59%
  intracellular tumor cell ATP pool, % of normal (control): 63%

## O=P1(N(CCCl)CCCl)NCCCO1 (stereo not drawn) [cyclophosphamide]
[5]
  enhancement of anticancer agent activity by co-administered MAP (in words): significantly enhance response rates

## N.N.[Cl][Pt][Cl] [DDP, cisplatin]
[3]; Exp.3069F, after third course
  % Weight Change: −18%
  Dead/Total: 1/10
  Regressions/Survivors: 0/9
[3]; [8]
  Av. Tumor W't: 850 mg
[3]
  effect on tumor growth / anticancer activity (in words): limited to inhibition of tumor growth
[3]; listed as cisplatin
  effect on tumor growth / anticancer activity (in words): significantly inhibited tumor growth
[3]; pooled five experiments, MAP ± DDP, one week after third course
  Regressions/Survivors (%): produced no partial (i.e., greater than 50% shrinkage of tumors), or complete response
[3]; single agent, 10-11 day schedule, tumor-bearing CD8F1 mice
  MTD (maximum tolerated dose) of the agent alone: 7 mg/kg
[5]
  enhancement of anticancer agent activity by co-administered MAP (in words): significantly enhance response rates

## COc1cccc2c1C(=O)c1c(O)c3c(c(O)c1C2=O)C[C@@](O)(C(=O)CO)C[C@@H]3O[C@H]1C[C@H](N)[C@H](O)[C@H](C)O1 [doxorubicin]
[5]
  enhancement of anticancer agent activity by co-administered MAP (in words): significantly enhance response rates

## N[C@@H](Cc1ccc(N(CCCl)CCCl)cc1)C(=O)O [PAM, phenylalanine mustard]
[3]; Table 6, MAP ± PAM
  Partial Regressions (%): did not produce tumor regressions
[5]
  enhancement of anticancer agent activity by co-administered MAP (in words): significantly enhance response rates

## CO[C@@]12[C@H](COC(N)=O)C3=C(C(=O)C(C)=C(N)C3=O)N1C[C@@H]1N[C@@H]12 [mitomycin C]
[5]
  enhancement of anticancer agent activity by co-administered MAP (in words): significantly enhance response rates

## O=C(O)C[C@H](NC(=O)CP(=O)(O)O)C(=O)O [PALA, N-(phosphonacetyl)-L-aspartic acid]
[2]; low dose PALA
  effect on tumor ATP levels (in words): had no effect on ATP levels; also recorded: does not effect ATP depletion; also recorded: devoid of an ATP depleting effect; also recorded: does not affect ATP depletion; also recorded: neither reduces tumor ATP levels nor inhibits tumor growth
[3]
  effect on tumor growth / anticancer activity (in words): not antitumor active; also recorded: does not have anticancer activity

## CC(=O)O[C@@]12CO[C@@H]1C[C@H](O)[C@@]1(C)C(=O)[C@H](O)C3=C(C)[C@@H](OC(=O)[C@H](O)[C@@H](NC(=O)OC(C)(C)C)c4ccccc4)C[C@@](O)([C@@H](OC(=O)c4ccccc4)[C@H]21)C3(C)C [Taxotere, taxotere]
[6]; [9]
  PR (partial tumor regression): 0%
  (CR) complete tumor regression: (0%)
  NR (no tumor regression): 100%
[6]; [10]
  PR (partial tumor regression): 60%
  (CR) complete tumor regression: (10%)
  NR (no tumor regression): 40%
[6]; 69 days after initiating therapy, every 2 weeks x 3, 10-11 mice per group
  Mortality: 0%
[6]; MDA-MB-468 tumor model described as very sensitive
  tumor regressions with the single agent: 90-100%
[6]; full (MTD) dose Taxotere, Group 1
  tumor regrowth beginning, days after the third and last injection: 41 days
[6]; treatment q 2 weeks x 3, progressing tumors larger than P.R. tumors and growing
  % Tumors Progressing: 0%
[6]; treatment q 2 weeks x 3
  % Partial Regressions: 100%
[6]; treatment q 2 weeks x 3, listed as Taxotere40
  % Partial Regressions: 100%
[5]
  enhancement of anticancer agent activity by co-administered MAP (in words): significantly enhance response rates

## O=c1[nH]cc(F)c(=O)[nH]1 [FUra, 5-fluorouracil]
In vivo
  MTD: 100 mg/kg
[7]; 75 mg/kg
  regressions of spontaneous autochthonous breast tumors, FUra alone at 75 mg/kg: less than 5%
[7]; 100 mg/kg
  PR rate, FUra alone at its MTD of 100 mg/kg: ≤ 20%
[5]
  enhancement of anticancer agent activity by co-administered MAP (in words): significantly enhance response rates

## COc1cc([C@@H]2c3cc4c(cc3[C@@H](O[C@@H]3O[C@@H]5CO[C@@H](C)O[C@H]5[C@H](O)[C@H]3O)[C@H]3COC(=O)[C@H]23)OCO4)cc(OC)c1O [etoposide]
[5]
  enhancement of anticancer agent activity by co-administered MAP (in words): significantly enhance response rates
